Laboratory results published in ChEMBL document CHEMBL1135600, “Novel tricyclic-alpha-alkyloxyphenylpropionic acids: dual PPARalpha/gamma agonists with hypolipidemic and antidiabetic activity” (J Med Chem, 2002).
Values joined by “and” are separate entries in the source; they are usually repeats but may differ in a detail not shown here. Identical values can stand only once. Each block holds one molecule with its values, some of them ahead of it.

Key:
[1] = target: T1, Peroxisome proliferator-activated receptor alpha (Homo sapiens, UniProt Q07869); experiment: In vitro transactivation using receptor transactivation assay against hPPAR alpha; format: functional
T1 sequence (Q07869 whole entry): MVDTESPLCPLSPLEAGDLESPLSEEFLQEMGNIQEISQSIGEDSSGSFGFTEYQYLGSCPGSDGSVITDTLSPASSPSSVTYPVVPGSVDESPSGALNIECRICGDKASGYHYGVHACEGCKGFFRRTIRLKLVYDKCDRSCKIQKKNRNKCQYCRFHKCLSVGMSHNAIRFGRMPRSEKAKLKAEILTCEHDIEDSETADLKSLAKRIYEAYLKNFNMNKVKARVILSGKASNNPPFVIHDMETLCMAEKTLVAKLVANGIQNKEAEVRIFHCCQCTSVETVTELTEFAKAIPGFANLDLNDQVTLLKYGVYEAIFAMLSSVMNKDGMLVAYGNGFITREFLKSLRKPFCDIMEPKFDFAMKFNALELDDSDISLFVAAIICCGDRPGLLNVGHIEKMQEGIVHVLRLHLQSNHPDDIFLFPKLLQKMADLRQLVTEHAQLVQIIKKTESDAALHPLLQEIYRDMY

[2] = target: T2, Peroxisome proliferator-activated receptor gamma (Homo sapiens, UniProt P37231)
T2 sequence (P37231 whole entry): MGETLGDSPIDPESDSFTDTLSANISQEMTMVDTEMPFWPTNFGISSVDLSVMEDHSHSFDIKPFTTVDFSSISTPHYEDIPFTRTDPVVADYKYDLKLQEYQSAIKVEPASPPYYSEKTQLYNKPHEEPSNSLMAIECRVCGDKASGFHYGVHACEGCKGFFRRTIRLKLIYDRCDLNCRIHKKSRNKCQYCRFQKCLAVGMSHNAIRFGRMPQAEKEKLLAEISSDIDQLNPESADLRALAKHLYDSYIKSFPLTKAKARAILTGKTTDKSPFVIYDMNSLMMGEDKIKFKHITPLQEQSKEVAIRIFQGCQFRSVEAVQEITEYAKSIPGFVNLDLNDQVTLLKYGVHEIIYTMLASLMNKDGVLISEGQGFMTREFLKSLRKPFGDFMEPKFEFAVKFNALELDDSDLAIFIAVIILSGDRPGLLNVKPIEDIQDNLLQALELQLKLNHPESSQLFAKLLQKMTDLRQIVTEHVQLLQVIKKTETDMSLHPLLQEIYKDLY
Description: In vitro transactivation using receptor transactivation assay against hPPAR gamma

[3] = Clearance after oral administration; format: ADME, organism-based; settings: in vivo
[4] = Area under plasma concentration time curve after oral administration at a dose 2.2 mg/kg; format: ADME, organism-based; design: dose 2.2 mg/kg, route oral
[5] = Oral bioavailability; format: ADME, organism-based; settings: eutheria, in vivo
[6] = Maximum plasma concentration after oral administration at a dose 2.2 mg/kg; format: ADME, organism-based; design: dose 2.2 mg/kg, route oral
[7] = Area under blood glucose time curve after OGTT on the 9th day of treatment; format: ADME, tissue-based
Mus musculus [8] = species on record: Mus musculus; experiment: (§1) Maximum achieved blood glucose reduction relative to vehicle treated control group; format: functional
Mus musculus [9] = species on record: Mus musculus; experiment: Maximum achieved insulin reduction relative to vehicle treated control group; format: functional
Mus musculus [10] = species on record: Mus musculus; experiment: Maximum achieved triglycerides reduction relative to vehicle treated control group; format: functional
Mus musculus [11] = species on record: Mus musculus; experiment: Effective dose which produces the desired nonfasting blood glucose levels after 7 days in 50% of the treated mice.; format: functional; settings: 168 h
Mus musculus [12] = species on record: Mus musculus; experiment: Effective dose which produces the desired nonfasting insuline levels after 7 days in 50% of the treated male db/db mice.; format: functional; settings: 168 h
Mus musculus [13] = species on record: Mus musculus; experiment: Effective dose which produces the desired nonfasting triglyceride levels after 7 days in 50% of the treated male db/db mice.; format: functional; settings: 168 h
Rattus norvegicus [14] = species on record: Rattus norvegicus; experiment: Effective dose which produces the desired nonfasting triglyceride levels in high cholesterol fed male Sprgue-Dawley rats.; format: functional
Rattus norvegicus [15] = species on record: Rattus norvegicus; experiment: Effective dose which produces the desired total cholesterol levels imale Sprgue-Dawley rats.; format: functional
Rattus norvegicus [16] = species on record: Rattus norvegicus; experiment: Maximum achieved Nonfasted triglycerides reduction relative to vehicle treated control group; format: functional
Rattus norvegicus [17] = species on record: Rattus norvegicus; experiment: Maximum achieved Total cholesterol reduction relative to vehicle treated control group; format: functional
[18] = Oral half life was reported; format: ADME, organism-based; settings: in vivo
[19] = Clearance after oral administration in rat; format: ADME, organism-based; settings: in vivo
[20] = Area under plasma concentration time curve after oral administration at a dose 2.2 mg/kg in rat; format: ADME, organism-based; design: dose 2.2 mg/kg, route oral
[21] = Oral bioavailability in rat; format: ADME, organism-based; settings: in vivo
[22] = Volume of distribution during steady state in rat; format: ADME, organism-based; settings: in vivo, read-out: Vss
[23] = Maximum plasma concentration after oral administration at a dose 2.2 mg/kg in rat; format: ADME, organism-based; design: dose 2.2 mg/kg, route oral
[24] = Oral half life was reported in rat; format: ADME, organism-based; settings: in vivo
Mus musculus [25] = species on record: Mus musculus; experiment: Nonfasting blood glucose after 7 days treatment in male db/db mice; format: functional; settings: 168 h
Mus musculus [26] = species on record: Mus musculus; experiment: Nonfasting insulin after 7 days treatment in male db/db mice; format: functional; settings: 168 h
Mus musculus [27] = species on record: Mus musculus; experiment: Nonfasting triglycerides after 7 days treatment in male db/db mice; format: functional; settings: 168 h
Mus musculus [28] = species on record: Mus musculus; experiment: as §1; format: functional; remark: listed apart in the source

EC50 [1]: 12.5 µM
EC50 [2]: 12.1 µM
SMILES: CCOC(Cc1ccc(OCC=C2c3ccccc3-c3ccccc32)cc1)C(=O)O (configuration not stated)

EC50 [1]: 7.5 µM
EC50 [2]: 9.8 µM
SMILES: CCOC(Cc1ccc(OCCNC2=Nc3ccccc3Sc3ccccc32)cc1)C(=O)O (configuration not stated)

EC50 [2]: 3.4 µM
SMILES: CCOC(Cc1ccc(OCC=C2c3ccccc3OCOc3ccccc32)cc1)C(=O)O (configuration not stated)

EC50 [1]: 9 µM
EC50 [2]: 3.7 µM
SMILES: CCOC(Cc1ccc(OCCC2Sc3ccccc3Oc3ccccc32)cc1)C(=O)O (configuration not stated)

EC50 [1]: 2.4 µM
EC50 [2]: 0.33 µM
SMILES: CCO[C@@H](Cc1ccc(OCCn2c3ccccc3c3cc(Br)ccc32)cc1)C(=O)O

EC50 [1]: 0.67 µM
EC50 [2]: 0.091 µM
SMILES: CCOC(Cc1ccc(OCCn2c3ccccc3c3ccncc32)cc1)C(=O)O (configuration not stated)

The next lines start with the molecule.

SMILES: CCO[C@@H](Cc1ccc(OCCn2c3ccccc3c3ccccc32)cc1)C(=O)O
CL/F [3]: 0.75 mL/min/kg
AUC ([4]; plasma, read-out: AUC (converted)): 144000 ng·h/mL
bioavailability [5]: > 100%
Cmax [6]: 4430 ng/mL
AUC ED50 [7]: 0.4 mg/kg
Max reduction (Mus musculus [8]): 58% and 55%
Max reduction (Mus musculus [9]): 85%
Max reduction (Mus musculus [10]): 52%
ED50 (Mus musculus [11]): 0.27 mg/kg
ED50 (Mus musculus [12]): 0.34 mg/kg
ED50 (Mus musculus [13]): 0.52 mg/kg
ED50 (Rattus norvegicus [14]): 0.06 mg/kg
ED50 (Rattus norvegicus [15]): 0.34 mg/kg
Reduction (Rattus norvegicus [16]): 56%
Reduction (Rattus norvegicus [17]): 50%
EC50 [1]: 0.36 µM
half-life [18]: 22.2 h
EC50 [2]: 0.17 µM
Vd (in vivo): 0.73 L/kg

SMILES: CCOC(Cc1ccc(OCCC=C2c3ccccc3CCc3ccccc32)cc1)C(=O)O (configuration not stated)
EC50 [2]: 16.7 µM

SMILES: CCO[C@@H](Cc1ccc(OCCn2c3ccccc3c3ccncc32)cc1)C(=O)O
CL/F [19]: 12.7 mL/min/kg
AUC [20]: 1330 ng·h/mL
bioavailability [21]: 61%
Vd [22]: 0.88 L/kg
Cmax [23]: 527 ng/mL
AUC ED50 [7]: 3.32 mg/kg
half-life [24]: 2.7 h
Max reduction (Mus musculus [9]): 77%
Max reduction (Mus musculus [10]): 50%
ED50 (Mus musculus [11]): 0.33 mg/kg
ED50 (Mus musculus [12]): 7.74 mg/kg
ED50 (Mus musculus [13]): 2.68 mg/kg
EC50 [1]: 0.14 µM
EC50 [2]: 0.011 µM

SMILES: CCO[C@@H](Cc1ccc(OCCN2c3ccccc3Oc3ccccc32)cc1)C(=O)O [RAGAGLITAZAR]
EC50 [1]: 3.21 µM
EC50 [2]: 0.57 µM

SMILES: CCOC(Cc1ccc(OCCN2c3ccccc3CCc3ccccc32)cc1)C(=O)O (configuration not stated)
EC50 [2]: 0.75 µM

SMILES: CCc1ccc(CCOc2ccc(CC3SC(=O)NC3=O)cc2)nc1 (configuration not stated) [PIOGLITAZONE]
CL/F [3]: 1.4 mL/min/kg
AUC ([4]; in vivo): 29200 ng·h/mL
bioavailability [5]: 112%
Cmax [6]: 4660 ng/mL
AUC ED50 [7]: 12.09 mg/kg
ED50 (Mus musculus [25]): 2.62 mg/kg
ED50 (Mus musculus [26]): 15.1 mg/kg
ED50 (Mus musculus [27]): 26.7 mg/kg
Max reduction (Mus musculus [8]): 53%
Max reduction (Mus musculus [9]): 54%
Max reduction (Mus musculus [10]): 21%
Max reduction (Mus musculus [28]): 39%
half-life [18]: 3.8 h
Vd (in vivo): 0.22 L/kg
